Several values for one entry are separate records, joined by “and”; a condition that tells them apart may be missing. Identical values can stand only once. Inconclusive results and toxic doses are left out. Peptide text beside a SMILES is read from it. * marks the point of attachment. Cbz = O=C(OCc1ccccc1)*
Test system: P388 leukemia ip, CD2F1 mice, survival T/C
Assay: NCI In Vivo Anticancer Drug Screen. Data for tumor model P388 Leukemia (intraperitoneal) in CD2F1 (CDF1) mice
Settings: endpoint: median survival time, higher = longer survival
Outline: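 Mice carrying the transplanted tumor received test compound or vehicle. Survival was recorded in each group, and the value is the treated-group measurement divided by that of the vehicle-treated control group.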

[1] = dose: 50.0 mg/kg/injection, schedule: Q01DX009 (ip), vehicle: Klucel (hydroxypropylcellulose) (HPC)
[2] = dose: 50.0 mg/kg/injection, schedule: Q01DX005 (ip), vehicle: saline with Tween-80
[3] = dose: 100.0 mg/kg/injection, schedule: Q01DX005 (ip), vehicle: saline with Tween-80
[4] = dose: 200.0 mg/kg/injection, schedule: Q01DX005 (ip), vehicle: saline with Tween-80
[5] = dose: 100.0 mg/kg/injection, schedule: Q04DX003 (ip), vehicle: saline with Tween-80
[6] = dose: 200.0 mg/kg/injection, schedule: Q04DX003 (ip), vehicle: saline with Tween-80
[7] = dose: 60.0 mg/kg/injection, schedule: Q01DX005 (ip), vehicle: saline with Tween-80
[8] = dose: 120.0 mg/kg/injection, schedule: Q01DX005 (ip), vehicle: saline with Tween-80
[9] = dose: 240.0 mg/kg/injection, schedule: Q01DX005 (ip), vehicle: saline with Tween-80
[10] = dose: 400.0 mg/kg/injection, schedule: Q04DX003 (ip), vehicle: saline with Tween-80
[11] = dose: 50.0 mg/kg/injection, schedule: Q01DX005 (ip), vehicle: Klucel (hydroxypropylcellulose) (HPC)
[12] = dose: 100.0 mg/kg/injection, schedule: Q01DX005 (ip), vehicle: Klucel (hydroxypropylcellulose) (HPC)
[13] = dose: 200.0 mg/kg/injection, schedule: Q01DX005 (ip), vehicle: Klucel (hydroxypropylcellulose) (HPC)
[14] = dose: 50.0 mg/kg/injection, schedule: Q01DX001 (ip), vehicle: Klucel (hydroxypropylcellulose) (HPC)
[15] = dose: 100.0 mg/kg/injection, schedule: Q01DX001 (ip), vehicle: Klucel (hydroxypropylcellulose) (HPC)

COc1ccc(/C=C/C(=O)c2cc(O)cc(OC)c2)cc1
T/C (dose: 6.25 mg/kg/injection, schedule: Q01DX009 (ip), vehicle: Klucel (hydroxypropylcellulose) (HPC)): 101 % of control
T/C (dose: 12.5 mg/kg/injection, schedule: Q01DX009 (ip), vehicle: Klucel (hydroxypropylcellulose) (HPC)): 96 % of control
T/C (dose: 25.0 mg/kg/injection, schedule: Q01DX009 (ip), vehicle: Klucel (hydroxypropylcellulose) (HPC)): 101 % of control
T/C [1]: 110 % of control

CCOC(=O)COc1cc2c(cc1C(C)c1cc(OC)c(OC)c(OC)c1)OCO2 (stereo not drawn)
T/C [2]: 100 % of control
T/C [3]: 105 % of control
T/C [4]: 99 % of control

Nc1ccc2oc3ccccc3c2c1
T/C [5]: 100 % of control
T/C [6]: 103 % of control

CC(NNC(=S)N1CCCC1)c1cccc[n+]1[O-] (stereo not drawn)
T/C [2]: 101 % of control
T/C [3]: 100 % of control
T/C [4]: 94 % of control

COc1cccc2c1C(=O)c1c(O)c3c(c(O)c1C2=O)CC(O)(C(C)=O)CC3OC1CC(NCC2(O)OC(C(=O)NCCCN(C)C)C(O)C2O)C(O)C(C)O1 (stereo not drawn)
T/C (dose: 2.5 mg/kg/injection, schedule: Q04DX003 (ip), vehicle: water): 101 % of control
T/C (dose: 5.0 mg/kg/injection, schedule: Q04DX003 (ip), vehicle: water): 109 % of control
T/C (dose: 10.0 mg/kg/injection, schedule: Q04DX003 (ip), vehicle: water): 108 % of control
T/C (dose: 20.0 mg/kg/injection, schedule: Q04DX003 (ip), vehicle: water): 109 % of control
T/C (dose: 40.0 mg/kg/injection, schedule: Q04DX003 (ip), vehicle: water): 109 % of control

COc1ccccc1/C=C1/C(=O)ON=C1C
T/C [7]: 100 % of control
T/C [8]: 98 % of control
T/C [9]: 108 % of control

COC(=O)C(CSCc1ccccc1)NC(=O)CCNC(=O)c1ccccc1 (stereo not drawn)
T/C (dose: 12.5 mg/kg/injection, schedule: Q01DX009 (ip), vehicle: distilled water + Tween-80): 100 % of control
T/C (dose: 25.0 mg/kg/injection, schedule: Q01DX009 (ip), vehicle: distilled water + Tween-80): 94 % of control
T/C (dose: 50.0 mg/kg/injection, schedule: Q01DX009 (ip), vehicle: distilled water + Tween-80): 98 % of control
T/C (dose: 100.0 mg/kg/injection, schedule: Q01DX009 (ip), vehicle: distilled water + Tween-80): 91 % of control
T/C (dose: 200.0 mg/kg/injection, schedule: Q01DX009 (ip), vehicle: distilled water + Tween-80): 111 % of control

COc1cc(C2c3c(oc4ccccc4c3=O)Oc3oc4ccccc4c(=O)c32)cc(OC)c1O
T/C (dose: 15.0 mg/kg/injection, schedule: Q01DX005 (ip), vehicle: saline with Tween-80): 92 % of control
T/C (dose: 30.0 mg/kg/injection, schedule: Q01DX005 (ip), vehicle: saline with Tween-80): 96 % of control
T/C [7]: 92 % of control
T/C [8]: 95 % of control
T/C [9]: 98 % of control

Nc1cc2ccc3ncccc3c2c2cccnc12
T/C [5]: 103 % of control
T/C [6]: 97 % of control
T/C [10]: 97 % of control

CS(=O)(=O)OCCCCCCCCCCCN1CCOCC1
T/C [2]: 98 % of control
T/C [3]: 94 % of control

O=C(NC(Cc1ccc(O)cc1)C(=O)NC(CO)C(=O)O)OCc1ccccc1 (stereo not drawn) (Cbz-Tyr-Ser-OH; configuration not given here)
T/C [2]: 101 % of control
T/C [3]: 101 % of control
T/C [4]: 106 % of control

CC(=O)CC(=O)CCC(=O)Nc1cccc([N+](=O)[O-])c1
T/C [7]: 106 % of control
T/C [8]: 100 % of control
T/C [9]: 105 % of control

NC1(O)C(=O)NC(=O)NC1=O
T/C (dose: 60.0 mg/kg/injection, schedule: Q01DX005 (ip), vehicle: saline): 101 % of control
T/C (dose: 120.0 mg/kg/injection, schedule: Q01DX005 (ip), vehicle: saline): 93 % of control
T/C (dose: 240.0 mg/kg/injection, schedule: Q01DX005 (ip), vehicle: saline): 88 % of control

C(=N\c1oc(-c2ccccc2)c(-c2ccccc2)c1-c1ccccc1)/c1ccccc1
T/C [2]: 88 % of control
T/C [3]: 88 % of control
T/C [4]: 95 % of control

Nc1nnc2cc(Br)ccc2n1
T/C [1]: 102 % of control
T/C (dose: 100.0 mg/kg/injection, schedule: Q01DX009 (ip), vehicle: Klucel (hydroxypropylcellulose) (HPC)): 99 % of control
T/C (dose: 200.0 mg/kg/injection, schedule: Q01DX009 (ip), vehicle: Klucel (hydroxypropylcellulose) (HPC)): 100 % of control

CCOc1ccc(/C=N/NC(=O)C(O)c2ccccc2)cc1OC (stereo not drawn)
T/C [7]: 96 % of control
T/C [8]: 100 % of control
T/C [9]: 94 % of control

O=C1Nc2ccccc2NC(=O)C1(O)O
T/C [11]: 100 % of control
T/C [12]: 101 % of control
T/C [13]: 101 % of control

O=c1cccccc1[O][Sn]([Cl])([Cl])[O]c1cccccc1=O
T/C (dose: 25.0 mg/kg/injection, schedule: Q01DX001 (ip), vehicle: Klucel (hydroxypropylcellulose) (HPC)): 97 % of control
T/C [14]: 99 % of control
T/C [15]: 99 % of control

S=C1SC2(CCCC2)NC2=C1CCC2
T/C (dose: 50.0 mg/kg/injection, schedule: Q01DX009 (ip), vehicle: saline with Tween-80): 90 % of control
T/C (dose: 100.0 mg/kg/injection, schedule: Q01DX009 (ip), vehicle: saline with Tween-80): 93 % of control
T/C (dose: 200.0 mg/kg/injection, schedule: Q01DX009 (ip), vehicle: saline with Tween-80): 99 % of control

O=C1C(Cl)=C(Nc2ccc3c(c2NC2=C(Cl)C(=O)c4ccccc4C2=O)C(=O)c2ccccc2C3=O)C(=O)c2ccccc21
T/C [11]: 97 % of control
T/C [12]: 99 % of control

Cn1cnc2cc(NCCCc3ccccc3)c([N+](=O)[O-])cc2c1=O
T/C [5]: 103 % of control
T/C [6]: 101 % of control
T/C [10]: 105 % of control

CCOC(=O)c1ccc(N2C(=O)C(Cl)(c3ccccc3)C2c2ccco2)cc1 (stereo not drawn)
T/C [7]: 100 % of control
T/C [8]: 95 % of control
T/C [9]: 94 % of control

COc1ccc(NN=O)cn1
T/C (dose: 1.56 mg/kg/injection, schedule: Q01DX009 (ip), vehicle: water): 100 % of control
T/C (dose: 3.12 mg/kg/injection, schedule: Q01DX009 (ip), vehicle: water): 100 % of control and 105 % of control
T/C (dose: 6.25 mg/kg/injection, schedule: Q01DX009 (ip), vehicle: water): 99 % of control and 106 % of control
T/C (dose: 12.5 mg/kg/injection, schedule: Q01DX009 (ip), vehicle: water): 106 % of control and 107 % of control and 98 % of control
T/C (dose: 25.0 mg/kg/injection, schedule: Q01DX009 (ip), vehicle: water): 115 % of control and 122 % of control and 97 % of control
T/C (dose: 50.0 mg/kg/injection, schedule: Q01DX009 (ip), vehicle: water): 114 % of control and 122 % of control
T/C (dose: 100.0 mg/kg/injection, schedule: Q01DX009 (ip), vehicle: water): 122 % of control
T/C (dose: 200.0 mg/kg/injection, schedule: Q01DX009 (ip), vehicle: water): 121 % of control

S=C(NCc1ccccc1)NNc1nnc(-c2ccccc2)c(-c2ccccc2)n1
T/C (dose: 12.5 mg/kg/injection, schedule: Q01DX005 (ip), vehicle: saline with Tween-80): 96 % of control
T/C (dose: 25.0 mg/kg/injection, schedule: Q01DX005 (ip), vehicle: saline with Tween-80): 94 % of control
T/C [2]: 91 % of control

CN1CCC(O)(c2nccc3ccccc23)CC1
T/C [14]: 111 % of control
T/C [15]: 96 % of control

CN(C)C(=O)Nc1nc2cc(Cl)c(Cl)cc2[nH]1
T/C (dose: 200.0 mg/kg/injection, schedule: Q04DX003 (oral), vehicle: saline with Tween-80): 102 % of control
T/C (dose: 400.0 mg/kg/injection, schedule: Q04DX003 (oral), vehicle: saline with Tween-80): 117 % of control
T/C (dose: 800.0 mg/kg/injection, schedule: Q04DX003 (oral), vehicle: saline with Tween-80): 112 % of control
T/C (dose: 1600.0 mg/kg/injection, schedule: Q04DX003 (oral), vehicle: saline with Tween-80): 121 % of control

CN(C)C1c2cc(Cl)ccc2-c2c(Cl)cc(Cl)cc21 (stereo not drawn)
T/C [11]: 100 % of control and 91 % of control
T/C [12]: 96 % of control
T/C [13]: 91 % of control and 92 % of control

COC1C(O)CC(OC2CC(OC3CC(O[C@@H]4C(=O)c5c(cc6cc(OC7CC(OC8CC(O)C(O)C(C)O8)C(O)C(C)O7)c(C)c(O)c6c5O)C[C@H]4[C@H](OC)C(=O)[C@@H](O)[C@@H](C)O)OC(C)C3O)OC(C)C2O)OC1C (stereo partly drawn)
T/C (dose: 375.0 micrograms/kg/injection, schedule: Q01DX009 (ip), vehicle: saline): 121 % of control
T/C (dose: 1500.0 micrograms/kg/injection, schedule: Q01DX009 (ip), vehicle: saline): 170 % of control

Cc1nc(Nc2ccc(F)cc2)c2c(C)c[nH]c2n1
T/C [11]: 90 % of control
T/C [12]: 88 % of control
T/C [13]: 89 % of control

Cc1cccc(C)c1NC(=O)/C(Cl)=C1/Sc2ccccc2NC1=O
T/C [2]: 105 % of control
T/C [3]: 97 % of control
T/C [4]: 88 % of control
